Peptide text beside a SMILES is read from it.
How the values were obtained:
[1] = Dissolution in water and sedimentation in 0.45% saline at 37 °C for 24 h; assay type: physicochemical
Method: Synthetic MHP1 (NH2-[…]-COOH), MHP1-DN1 (NH2-LMVYVV-DLys-[…]-COOH), MHP1-DN2 (NH2-LMV-DTyr-[…]-COOH), MHP1-DN3 (NH2-L-DMet-[…]-COOH), MHP1-DC (NH2-LMVYVVKTSIKIPSSHNL-DMet-KGGSTKNWSGN-COOH), MHP1-Ac (Ac-[…]-COOH), MHP1-AcN (Ac-[…]-HN2), or MHP1-N (NH2-[…]-NH2) was purchased from ILS, Inc (Ibaraki, Tsukuba, Japan), dissolved in 1 or 2 mg/ml ddH2O and stored at 4 °C until use (Table 1).

LPS-stimulated MG6 cells [2] = experiment: LDH assay in LPS-stimulated MG6 cells; assay type: cell-based, mouse
[3] = Pharmacokinetics after intravenous injection 4 h after tMCAo (LC/MS/MS); assay type: in vivo; details: mouse, i.v. 2 mg/ml, 10 ml/kg in 0.45% saline
Method: MHP1-Ac or MHP1-AcN (2 mg/ml, 10 ml/kg in 0.45% saline) was administered intravenously 4 hrs after tMCAo and mouse plasma was collected at 5 min, 10 min, 20 min, 30 min, 45 min, 1 h, and 2 h after injection. Mouse plasma (C57BL6J, 10 µL) and water/phosphoric acid (24:1, v/v) (Solution B, 500 µL) were mixed together to prepare the plasma samples. The samples (510 µL) were then analyzed using LC/MS/MS to determine MHP1-Ac or MHP1-AcN in plasma. Mouse brain was weighed and mixed with a 4-fold volume of solution B and the mixture was homogenized to prepare the brain samples. The specific gravity of solution B was assumed to be 1. The brain samples (10 µL) were analyzed using LC/MS/MS to determine MHP1-Ac or MHP1-AcN in brain. MHP1-Ac and MHP1-AcN, and MHP1-N (internal standard), in the plasma samples and brain samples, were extracted using Oasis HLB μElution Plate (Waters). Chromatographic analysis was performed on an InertSustain C18 (2.1 mm I.D. ×50 mm, 3 µm, GL Sciences) column using the mobile phase A, water/formic acid (1000:1, v/v), and the mobile phase B, acetonitrile/formic acid (1000:1, v/v).

LPS-stimulated MG6 cells [4] = experiment: Anti-inflammatory effect in LPS-stimulated MG6 cells (TNF-α / IL-6 ELISA); assay type: cell-based, mouse; details: LPS-stimulated MG6 cells
Method: MG6 cells were obtained from RIKEN BRC (Tsukuba, Japan)[25],[26]. The MG6 cells were maintained in DMEM (Nakarai, Kyoto, Japan) supplemented with 10% FBS (Thermo Fisher Scientific, Waltham, MA, USA), 10 μg/ml insulin (Sigma-Aldrich, St. Louis, MO, USA) and 100 μM 2-mercaptoethanol (Sigma-Aldrich). These cells (1 × 10^5 cells) were plated in 96-well plastic culture dishes. After overnight incubation, the medium was replaced with DMEM supplemented with 4% FBS. LPS (Escherichia coli 0111: B4; Sigma-Aldrich, St. Louis, MO, USA) and MHP1 or modified MHP1 was added to the medium, which was then harvested at 24 h after stimulation. In the experiment checking the stability at 26 or 37 °C, MHP1-Ac or MHP1-AcN was incubated at 26 or 37 °C for 24 h before adding to the medium.
The concentrations of TNF-α and IL-6 were measured using commercially available ELISA kits: TNF-α, Quantikine Mouse TNF-α ELISA Kit (R&D systems); IL-6, Quantikine Mouse IL-6 ELISA Kit (R&D systems).

[5] = test system: FeCl3-induced thrombosis model in CCA; experiment: FeCl3-induced thrombosis model in CCA, thrombolysis with tPA; assay type: in vivo; details: mouse, tPA 10 mg/kg 30 min post-CCA occlusion
Method: The ischemic damage was evaluated at 48 h after MCAo in sections stained with cresyl violet. Coronal sections (12 μm thickness) were made at −1.4, −0.7, 0, 0.7 and 1.4 mm from the bregma, mounted on the stereomicroscope and photographed. The volume of the infarct was calculated by the sum of each area of all sections corrected by cerebral edema and multiplied by the thickness of the slices. In the experiment of tPA-induced hemorrhage, PE10-catheter was placed in the right internal jugular vein at 6 h after ischemia. The nylon suture was then removed and 10% of the MHP-AcN mixture (150 µg/mice) and tPA (10 mg/kg) were injected followed by continuous injection of residual mixture of MHP1-AcN and tPA using a syringe pump (UNIVENTOR 400 ANAESTHESIA UNIT, ZTN, MALTA). In the experiment of FeCl3 -induced thrombosis model in CCA, a piece of filter paper soaked in 7.5% FeCl3 was placed on the right CCA for 1 min and it was rinsed with saline. Blood flow was recorded by using a laser speckle blood flow imager (OMEGAZONE OZ-2, OMEGAWAVE, INC., Tokyo, Japan). tPA (10 mg/kg) or mixture of MHP1-AcN (150 μg/mice) and tPA was started to be administered at 30 min after CCA occlusion.

[6] = medium harvested 24 h after stimulation, ELISA

Molecule | sedimentation after incubation in 0.45% saline ([1]; 0.45% saline, 37 °C, 24 h, visual, concentration not given) | dissolution in water ([1]; water) | cytotoxicity (LDH assay) (LPS-stimulated MG6 cells [2]) | time post-injection until which peptide was detected in the brain ([3]; brain homogenate, last sampling 2 h) [h] | time within which peptide was degraded in plasma ([3]; plasma) [min] | anti-inflammatory effects at 1 µg/ml (LPS-stimulated MG6 cells [4]; 1 µg/ml peptide) | dose dependency of anti-inflammatory effects (LPS-stimulated MG6 cells [4]; 24 h, ELISA) | inhibition of IL-6 expression compared with MHP1 (LPS-stimulated MG6 cells [4]; [6]) | inhibition of TNF-α expression compared with MHP1 (LPS-stimulated MG6 cells [4]; [6]) | time from tPA application to clot lysis (recanalization) [5]
CC[C@H](C)[C@H](NC(=O)[C@H](CO)NC(=O)[C@@H](NC(=O)[C@H](CCCCN)NC(=O)[C@@H](NC(=O)[C@@H](NC(=O)[C@H](Cc1ccc(O)cc1)NC(=O)[C@@H](NC(=O)[C@H](CCSC)NC(=O)[C@H](CC(C)C)NC(C)=O)C(C)C)C(C)C)C(C)C)[C@@H](C)O)C(=O)N[C@@H](CCCCN)C(=O)N[C@H](C(=O)N1CCC[C@H]1C(=O)N[C@@H](CO)C(=O)N[C@@H](CO)C(=O)N[C@@H](Cc1c[nH]cn1)C(=O)N[C@@H](CC(N)=O)C(=O)N[C@@H](CC(C)C)C(=O)N[C@@H](CCSC)C(=O)N[C@@H](CCCCN)C(=O)NCC(=O)NCC(=O)N[C@@H](CO)C(=O)N[C@H](C(=O)N[C@@H](CCCCN)C(=O)N[C@@H](CC(N)=O)C(=O)N[C@@H](Cc1c[nH]c2ccccc12)C(=O)N[C@@H](CO)C(=O)NCC(=O)N[C@@H](CC(N)=O)C(=O)O)[C@@H](C)O)[C@@H](C)CC [MHP1-Ac] (Ac-LMVYVVKTSIKIPSSHNLMKGGSTKNWSGN-OH) | experienced sedimentation | easily dissolved in water | did not increase cytotoxicity | 2 | ≤ 20 | not seen | Dose-dependent anti-inflammatory effects were observed | more effective than MHP1 | more effective than MHP1 | –
tPA: tissue plasminogen activator, thrombolytic used in acute ischemic stroke | – | – | – | – | – | – | – | – | – | approximately 20 min

From publication PMC6290023 (Scientific Reports, 2018)
